Test: xn = mol fraction of the nth substance listed
Conditions: 101.3 kPa, Liquid

CCOC(=O)OCC [diethyl carbonate] + CC(C)O
Conditions | viscosity [mPa·s]
293.15 K, x1 = 0.0502 | 1.973
293.15 K, x1 = 0.1001 | 1.67
293.15 K, x1 = 0.203 | 1.27
293.15 K, x1 = 0.3012 | 1.073
293.15 K, x1 = 0.3954 | 0.962
293.15 K, x1 = 0.5021 | 0.886
293.15 K, x1 = 0.6035 | 0.841
293.15 K, x1 = 0.6976 | 0.811
293.15 K, x1 = 0.8048 | 0.794
293.15 K, x1 = 0.9129 | 0.796
293.15 K, x1 = 0.9529 | 0.799
293.15 K, x1 = 1 | 0.795
298.15 K, x1 = 0.049 | 1.766
298.15 K, x1 = 0.0987 | 1.501
298.15 K, x1 = 0.1978 | 1.135
298.15 K, x1 = 0.2945 | 0.94
298.15 K, x1 = 0.3925 | 0.836
298.15 K, x1 = 0.4925 | 0.788
298.15 K, x1 = 0.5939 | 0.763
298.15 K, x1 = 0.7004 | 0.74
298.15 K, x1 = 0.7979 | 0.719
298.15 K, x1 = 0.8967 | 0.717
298.15 K, x1 = 0.9504 | 0.726
298.15 K, x1 = 1 | 0.749
303.15 K, x1 = 0.0522 | 1.468
303.15 K, x1 = 0.099 | 1.277
303.15 K, x1 = 0.1944 | 1.009
303.15 K, x1 = 0.2913 | 0.864
303.15 K, x1 = 0.392 | 0.777
303.15 K, x1 = 0.4763 | 0.733
303.15 K, x1 = 0.5883 | 0.702
303.15 K, x1 = 0.6972 | 0.683
303.15 K, x1 = 0.7854 | 0.68
303.15 K, x1 = 0.889 | 0.684
303.15 K, x1 = 0.9488 | 0.69
303.15 K, x1 = 1 | 0.699
313.15 K, x1 = 0.0506 | 1.148
313.15 K, x1 = 0.0997 | 1.011
313.15 K, x1 = 0.2016 | 0.821
313.15 K, x1 = 0.303 | 0.71
313.15 K, x1 = 0.4008 | 0.661
313.15 K, x1 = 0.4969 | 0.634
313.15 K, x1 = 0.599 | 0.617
313.15 K, x1 = 0.7007 | 0.604
313.15 K, x1 = 0.8011 | 0.594
313.15 K, x1 = 0.903 | 0.596
313.15 K, x1 = 0.9511 | 0.605
313.15 K, x1 = 1 | 0.623

CCOC(=O)OCC [diethyl carbonate] + CCCCCO
Conditions | viscosity [mPa·s]
293.15 K, x1 = 0.0496 | 3.384
293.15 K, x1 = 0.1016 | 2.868
293.15 K, x1 = 0.2034 | 2.125
293.15 K, x1 = 0.3124 | 1.618
293.15 K, x1 = 0.3801 | 1.412
293.15 K, x1 = 0.5085 | 1.162
293.15 K, x1 = 0.6047 | 1.051
293.15 K, x1 = 0.7068 | 0.955
293.15 K, x1 = 0.8058 | 0.88
293.15 K, x1 = 0.9058 | 0.825
293.15 K, x1 = 0.9521 | 0.804
293.15 K, x1 = 1 | 0.795
298.15 K, x1 = 0.0459 | 2.91
298.15 K, x1 = 0.0984 | 2.492
298.15 K, x1 = 0.2067 | 1.857
298.15 K, x1 = 0.3012 | 1.497
298.15 K, x1 = 0.4002 | 1.242
298.15 K, x1 = 0.5091 | 1.067
298.15 K, x1 = 0.5884 | 0.972
298.15 K, x1 = 0.6988 | 0.871
298.15 K, x1 = 0.7986 | 0.802
298.15 K, x1 = 0.9133 | 0.751
298.15 K, x1 = 0.9663 | 0.745
298.15 K, x1 = 1 | 0.749
303.15 K, x1 = 0.0541 | 2.471
303.15 K, x1 = 0.0951 | 2.186
303.15 K, x1 = 0.1968 | 1.664
303.15 K, x1 = 0.292 | 1.356
303.15 K, x1 = 0.3986 | 1.131
303.15 K, x1 = 0.4966 | 0.992
303.15 K, x1 = 0.5963 | 0.88
303.15 K, x1 = 0.6847 | 0.803
303.15 K, x1 = 0.7988 | 0.733
303.15 K, x1 = 0.8885 | 0.706
303.15 K, x1 = 0.9493 | 0.7
303.15 K, x1 = 1 | 0.699
313.15 K, x1 = 0.0505 | 1.97
313.15 K, x1 = 0.1009 | 1.729
313.15 K, x1 = 0.2038 | 1.359
313.15 K, x1 = 0.3044 | 1.12
313.15 K, x1 = 0.4054 | 0.96
313.15 K, x1 = 0.5077 | 0.845
313.15 K, x1 = 0.5969 | 0.771
313.15 K, x1 = 0.71 | 0.697
313.15 K, x1 = 0.81 | 0.65
313.15 K, x1 = 0.9036 | 0.623
313.15 K, x1 = 0.9537 | 0.621
313.15 K, x1 = 1 | 0.623
